Active and inactive are the calls of the source.
Tests used:
INS1 = experiment: beta cell apoptosis inhibitors, cytokine rescue, dose response, luminescence, retest (AID 449756); assay type: functional, cell-based; conditions: Rattus norvegicus;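 note: cell death triggered by IL-1 beta plus TNF-alpha plus IFN-gamma mixture; protective hits raise ATP signal compared with cytokine alone wells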
[1] = MC4R antagonists, dose response, counter-screen for LGR2 antagonist project, cell-based, plate reader, cherry pick (AID 743444); assay type: functional;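 note: transfected HEK 293 cells stimulated with alpha-MSH peptide; potency of inhibitors of the alpha-MSH evoked signal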
[2] = A Cell Based Secondary Assay To Explore Cytotoxicity of Compounds that Sensitize Mycobacterium Tuberculosis to Beta-Lactam Antibiotics.; assay type: functional
[3] = test system: Streptococcus sp. 'group A'; experiment: growth inhibition of control SK(-) GAS strain, dose response, counter-screen for streptokinase expression inhibitor project, luminescence, kanamycin, BacTiterGlo, confirmation (AID 1900); assay type: functional, organism-based
cells [4] = assay type: functional, cell-based
Streptokinase A = target: T1, Streptokinase A (Streptococcus pyogenes serotype M1, UniProt P10520); experiment: S. pyogenes streptokinase expression inhibitors, potency, dose response, plasminogen activation absorbance, OD405 (AID 1914); assay type: functional, Streptococcus pyogenes M1 GAS;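 note: secreted streptokinase activity via plasminogen activation per viability signal from cell pellet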
T1 sequence (P10520 whole entry): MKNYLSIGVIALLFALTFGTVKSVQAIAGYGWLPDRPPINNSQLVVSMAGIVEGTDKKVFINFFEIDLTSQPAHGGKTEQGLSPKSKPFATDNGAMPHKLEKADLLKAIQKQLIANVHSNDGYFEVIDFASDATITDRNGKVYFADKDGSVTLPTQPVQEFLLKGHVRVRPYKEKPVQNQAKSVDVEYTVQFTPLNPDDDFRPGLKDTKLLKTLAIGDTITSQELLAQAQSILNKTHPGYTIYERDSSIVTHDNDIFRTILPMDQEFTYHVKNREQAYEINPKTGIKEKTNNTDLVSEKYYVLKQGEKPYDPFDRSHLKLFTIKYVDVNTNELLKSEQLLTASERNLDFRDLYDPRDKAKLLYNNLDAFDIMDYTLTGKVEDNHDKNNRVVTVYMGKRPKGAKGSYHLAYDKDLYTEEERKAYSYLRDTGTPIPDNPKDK

[5] = inhibitors of intracellular T. cruzi replication, confirmation, NIH3T3 host cells, beta-gal luminescence (AID 2044); assay type: functional, cell-based;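 note: intracellular parasites grown in NIH/3T3 mouse fibroblasts as host cells; luminescent beta-galactosidase reporter signal from transgenic T. cruzi replicating inside host cells; inhibitors lower the luminescence signal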
cells [6] = assay type: functional, cell-based; remark: listed apart in the source
[7] = cytotoxicity toward NIH3T3 fibroblasts, dose response, counter-screen, cell-based, ATP luminescence, mouse fibroblasts (AID 2010); assay type: functional;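 note: cells exposed to compound for about 90 hours before reading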
Streptococcus = experiment: Group A Streptococcus viability loss, dose response, counter-screen for streptokinase expression inhibitor project, luminescence, BacTiterGlo (AID 1915); assay type: functional, organism-based;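 note: potency for reduction of bacterial viability or growth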
Nonstructural protein 1 = Nonstructural protein 1 (Influenza A virus, UniProt Q194T2); assay type: functional, Influenza A virus (A/California/07/2009(H1N1))
[8] = target: T2, Probable nicotinate-nucleotide adenylyltransferase (Staphylococcus aureus (strain N315), UniProt P65502); assay type: functional, Staphylococcus aureus subsp. aureus N315;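 for IC50 Mean: confirmatory dose-response retesting of NadD inhibitor hits first found in an ultra-high-throughput screen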
[9] = target: T2, Probable nicotinate-nucleotide adenylyltransferase; assay type: functional, Staphylococcus aureus subsp. aureus N315; conditions: read-out: IC50_Mean
[10] = HepG2 cell cytotoxicity, dose response, cytotoxicity control, ATP luminescence, cherry-pick, activator set 2 (AID 1053143); assay type: functional, cell-based
[11] = A cytotoxicity screen of small molecule inhibitors of the PhoP region in Salmonella typhi identified in the primary screen. [Related pubchem assays: 1850, 1864, 1985 ]; assay type: functional
[12] = inhibitors of firefly luciferase expression or activity, dose response, H4 neuroglioma cells, luminescence (AID 1990); assay type: functional, cell-based
BJ [13] = experiment: cytotoxicity toward BJ-TERT fibroblasts, dose response, cell-based, RAS-independent, luminescence (AID 1933); assay type: functional; conditions: Homo sapiens
[14] = Luminescence Cell-Based Dose Response HTS to Identify Inhibitors of 5'UTR Stem-Loop Driven Prion Protein mRNA Translation in H4 Neuroglioblastoma Cells. [Related pubchem assays: 1827 (Project Summary), 1813 (Primary HTS)]; assay type: functional
BJ [15] = experiment: cells; assay type: functional, cell-based; conditions: Homo sapiens
BJ [16] = experiment: cytotoxicity toward BJ-TERT-LT-ST fibroblasts, dose response, cell-based, RAS-independent, luminescence (AID 1935); assay type: functional; conditions: Homo sapiens;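 note: BJ fibroblasts immortalized with TERT plus LT and ST oncogenes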
[17] = cytotoxicity toward DRD oncogenic fibroblasts, dose response, cell-based, non-viral oncogenic, luminescence (AID 1934); assay type: functional; conditions: Homo sapiens
HEK293 = experiment: inhibitors of LMP1-driven NF-kB reporter, dose response, cell-based, HEK293, luciferase, cherry-pick (AID 588343); assay type: functional; conditions: Homo sapiens
cells [18] = experiment: cells
[19] = HEp-2 cell cytotoxicity, dose response, cytotoxicity control for RSV inhibitor project, HTS (AID 2410); assay type: functional; conditions: human respiratory syncytial virus
Fatty acid synthase [20] = target: T3, Fatty acid synthase (Homo sapiens, UniProt P49327); experiment: FAS thioesterase domain inhibitors, dose response, biochemical, endpoint fluorescence intensity, uHTS hits (AID 624327); assay type: functional;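 note: fluorescence from hydrolysis of an O-methyl fluorescein acyl ester substrate by the enzyme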
Fatty acid synthase [21] = target: T3, Fatty acid synthase; experiment: FAS thioesterase domain inhibitors, dose response, biochemical, kinetic fluorescence intensity (AID 624326); assay type: functional;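 note: rate of fluorescence rise from hydrolysis of a fluorogenic O-methyl fluorescein ester substrate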
[22] = target: T4, Microphthalmia-associated transcription factor (Homo sapiens, UniProt O75030); experiment: TRPM1 promoter luciferase signal decrease, dose response, MITF inhibitor project, cell-based, SK-MEL-5, cherry-picked, set 3 (AID 493073); assay type: functional
T4 sequence (O75030 whole entry): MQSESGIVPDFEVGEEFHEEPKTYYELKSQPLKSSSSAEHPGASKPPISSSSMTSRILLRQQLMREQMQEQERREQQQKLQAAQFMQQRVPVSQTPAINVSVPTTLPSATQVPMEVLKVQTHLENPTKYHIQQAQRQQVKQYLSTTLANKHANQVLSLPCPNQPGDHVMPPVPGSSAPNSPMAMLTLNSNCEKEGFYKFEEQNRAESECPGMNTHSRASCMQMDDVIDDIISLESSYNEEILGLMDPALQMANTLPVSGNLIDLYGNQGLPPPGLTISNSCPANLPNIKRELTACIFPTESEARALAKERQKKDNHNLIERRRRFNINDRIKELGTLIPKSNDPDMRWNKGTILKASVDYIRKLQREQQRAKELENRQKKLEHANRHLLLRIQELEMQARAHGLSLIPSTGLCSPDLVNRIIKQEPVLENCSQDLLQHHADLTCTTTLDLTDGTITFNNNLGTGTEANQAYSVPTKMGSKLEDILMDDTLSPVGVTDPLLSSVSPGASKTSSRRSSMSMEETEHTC

[23] = target: T5, Carboxy-terminal domain RNA polymerase II polypeptide A small phosphatase 1 (Homo sapiens, UniProt Q9GZU7); experiment: inhibitors of CTDSP1, concentration-response testing, biochemical assay, absorbance-based, actives from ultra-high-throughput screening (AID 540297); assay type: functional
T5 sequence (Q9GZU7 whole entry): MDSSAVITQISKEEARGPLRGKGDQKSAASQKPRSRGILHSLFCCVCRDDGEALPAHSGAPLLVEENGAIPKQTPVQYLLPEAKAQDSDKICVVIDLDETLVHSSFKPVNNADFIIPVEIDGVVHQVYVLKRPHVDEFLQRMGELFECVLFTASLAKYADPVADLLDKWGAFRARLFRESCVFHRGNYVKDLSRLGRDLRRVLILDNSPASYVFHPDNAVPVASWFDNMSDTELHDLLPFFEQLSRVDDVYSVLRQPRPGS

[24] = target: 26S proteasome non-ATPase regulatory subunit 14 (Homo sapiens, UniProt O00487); experiment: inhibition of proteasome subunit RPN11 – biochemical, fluorescence polarization, uHTS hits, confirmation (AID 602368); assay type: functional
[25] = target: 72 kDa type IV collagenase (Homo sapiens, UniProt P08253); experiment: Dose Response validation of uHTS RPN11 inhibitor hits using a MMP-2 Fluorescence assay.; assay type: functional
Prothrombin = Prothrombin (Bos taurus, UniProt P00735); experiment: thrombin inhibition, dose response, biochemical, fluorescence polarization, uHTS hits (AID 602369); assay type: functional
Caspase-6 = target: T6, Caspase-6 (Homo sapiens, UniProt P55212); experiment: human caspase-6 inhibitors, dose response, biochemical, VEID-R110 fluorescence, cherry-pick (AID 720632)
T6 sequence (P55212 whole entry): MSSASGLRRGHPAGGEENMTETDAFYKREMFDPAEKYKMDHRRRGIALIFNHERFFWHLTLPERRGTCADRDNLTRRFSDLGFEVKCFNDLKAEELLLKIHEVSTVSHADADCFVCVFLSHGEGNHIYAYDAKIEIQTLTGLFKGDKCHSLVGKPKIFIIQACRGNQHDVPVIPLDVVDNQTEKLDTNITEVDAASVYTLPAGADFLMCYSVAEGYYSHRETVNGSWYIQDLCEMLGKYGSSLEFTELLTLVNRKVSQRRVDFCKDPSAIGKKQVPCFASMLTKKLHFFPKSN

Estrogen receptor = target: T7, Estrogen receptor (Homo sapiens, UniProt P03372);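 note: potency for inhibiting coactivator peptide recruitment to the receptor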
T7 sequence (P03372 whole entry): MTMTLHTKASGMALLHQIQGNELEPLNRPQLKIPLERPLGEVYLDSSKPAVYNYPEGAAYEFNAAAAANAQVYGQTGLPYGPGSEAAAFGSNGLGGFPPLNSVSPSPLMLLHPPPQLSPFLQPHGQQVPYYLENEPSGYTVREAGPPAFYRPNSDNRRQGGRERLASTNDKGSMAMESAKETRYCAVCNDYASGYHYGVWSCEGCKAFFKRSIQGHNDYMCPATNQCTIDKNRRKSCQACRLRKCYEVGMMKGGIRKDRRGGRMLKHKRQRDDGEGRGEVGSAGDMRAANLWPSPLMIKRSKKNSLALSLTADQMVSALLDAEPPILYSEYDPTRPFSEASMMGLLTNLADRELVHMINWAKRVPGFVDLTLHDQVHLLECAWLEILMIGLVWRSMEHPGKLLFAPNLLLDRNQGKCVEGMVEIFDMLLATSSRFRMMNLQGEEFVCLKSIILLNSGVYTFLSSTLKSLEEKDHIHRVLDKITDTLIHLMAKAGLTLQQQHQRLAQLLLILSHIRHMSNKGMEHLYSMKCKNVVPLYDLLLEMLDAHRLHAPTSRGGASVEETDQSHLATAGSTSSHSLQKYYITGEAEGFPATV

Estrogen receptor beta [26] = target: T8, Estrogen receptor beta (Homo sapiens, UniProt Q92731);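 note: recombinant ER-beta bound to coactivator SRC1 peptide in presence of estradiol agonist; inhibitors block coactivator peptide binding and lower the FRET signal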
Estrogen receptor beta [27] = target: T8, Estrogen receptor beta; experiment: ERβ–SRC-3 coactivator interaction inhibitors, confirmation, orthogonal assay, biochemical, ELISA, streptavidin-HRP readout (AID 1060)

T8 sequence (Q92731 whole entry): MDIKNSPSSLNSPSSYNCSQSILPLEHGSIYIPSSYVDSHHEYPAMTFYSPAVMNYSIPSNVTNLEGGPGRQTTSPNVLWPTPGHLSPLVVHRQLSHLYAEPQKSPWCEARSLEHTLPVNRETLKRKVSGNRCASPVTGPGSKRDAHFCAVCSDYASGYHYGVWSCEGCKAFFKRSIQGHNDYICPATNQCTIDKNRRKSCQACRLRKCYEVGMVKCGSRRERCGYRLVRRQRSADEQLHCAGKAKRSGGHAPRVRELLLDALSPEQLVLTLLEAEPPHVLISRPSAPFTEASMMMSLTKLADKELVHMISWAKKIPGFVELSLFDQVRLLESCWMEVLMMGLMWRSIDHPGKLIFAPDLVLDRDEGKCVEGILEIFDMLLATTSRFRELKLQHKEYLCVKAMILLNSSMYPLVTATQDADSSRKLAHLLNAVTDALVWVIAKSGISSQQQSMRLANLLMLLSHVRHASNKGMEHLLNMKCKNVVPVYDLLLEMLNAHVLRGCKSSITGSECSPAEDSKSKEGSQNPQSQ
Nonstructural protein 1, sequence (Q194T2 whole entry): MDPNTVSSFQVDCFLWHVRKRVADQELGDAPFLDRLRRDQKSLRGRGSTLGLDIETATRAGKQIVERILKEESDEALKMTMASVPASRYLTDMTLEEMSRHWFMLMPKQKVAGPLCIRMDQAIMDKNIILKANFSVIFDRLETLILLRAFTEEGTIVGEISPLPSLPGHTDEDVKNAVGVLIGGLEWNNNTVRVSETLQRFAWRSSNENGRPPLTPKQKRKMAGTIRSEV
T2 sequence (P65502 whole entry): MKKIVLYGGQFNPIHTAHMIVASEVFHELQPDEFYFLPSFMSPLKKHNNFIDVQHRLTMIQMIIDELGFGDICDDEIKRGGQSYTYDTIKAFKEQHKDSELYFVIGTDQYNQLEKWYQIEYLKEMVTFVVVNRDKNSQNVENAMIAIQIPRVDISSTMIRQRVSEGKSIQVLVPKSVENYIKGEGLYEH
T3 sequence (P49327 whole entry, the tested form may be a part): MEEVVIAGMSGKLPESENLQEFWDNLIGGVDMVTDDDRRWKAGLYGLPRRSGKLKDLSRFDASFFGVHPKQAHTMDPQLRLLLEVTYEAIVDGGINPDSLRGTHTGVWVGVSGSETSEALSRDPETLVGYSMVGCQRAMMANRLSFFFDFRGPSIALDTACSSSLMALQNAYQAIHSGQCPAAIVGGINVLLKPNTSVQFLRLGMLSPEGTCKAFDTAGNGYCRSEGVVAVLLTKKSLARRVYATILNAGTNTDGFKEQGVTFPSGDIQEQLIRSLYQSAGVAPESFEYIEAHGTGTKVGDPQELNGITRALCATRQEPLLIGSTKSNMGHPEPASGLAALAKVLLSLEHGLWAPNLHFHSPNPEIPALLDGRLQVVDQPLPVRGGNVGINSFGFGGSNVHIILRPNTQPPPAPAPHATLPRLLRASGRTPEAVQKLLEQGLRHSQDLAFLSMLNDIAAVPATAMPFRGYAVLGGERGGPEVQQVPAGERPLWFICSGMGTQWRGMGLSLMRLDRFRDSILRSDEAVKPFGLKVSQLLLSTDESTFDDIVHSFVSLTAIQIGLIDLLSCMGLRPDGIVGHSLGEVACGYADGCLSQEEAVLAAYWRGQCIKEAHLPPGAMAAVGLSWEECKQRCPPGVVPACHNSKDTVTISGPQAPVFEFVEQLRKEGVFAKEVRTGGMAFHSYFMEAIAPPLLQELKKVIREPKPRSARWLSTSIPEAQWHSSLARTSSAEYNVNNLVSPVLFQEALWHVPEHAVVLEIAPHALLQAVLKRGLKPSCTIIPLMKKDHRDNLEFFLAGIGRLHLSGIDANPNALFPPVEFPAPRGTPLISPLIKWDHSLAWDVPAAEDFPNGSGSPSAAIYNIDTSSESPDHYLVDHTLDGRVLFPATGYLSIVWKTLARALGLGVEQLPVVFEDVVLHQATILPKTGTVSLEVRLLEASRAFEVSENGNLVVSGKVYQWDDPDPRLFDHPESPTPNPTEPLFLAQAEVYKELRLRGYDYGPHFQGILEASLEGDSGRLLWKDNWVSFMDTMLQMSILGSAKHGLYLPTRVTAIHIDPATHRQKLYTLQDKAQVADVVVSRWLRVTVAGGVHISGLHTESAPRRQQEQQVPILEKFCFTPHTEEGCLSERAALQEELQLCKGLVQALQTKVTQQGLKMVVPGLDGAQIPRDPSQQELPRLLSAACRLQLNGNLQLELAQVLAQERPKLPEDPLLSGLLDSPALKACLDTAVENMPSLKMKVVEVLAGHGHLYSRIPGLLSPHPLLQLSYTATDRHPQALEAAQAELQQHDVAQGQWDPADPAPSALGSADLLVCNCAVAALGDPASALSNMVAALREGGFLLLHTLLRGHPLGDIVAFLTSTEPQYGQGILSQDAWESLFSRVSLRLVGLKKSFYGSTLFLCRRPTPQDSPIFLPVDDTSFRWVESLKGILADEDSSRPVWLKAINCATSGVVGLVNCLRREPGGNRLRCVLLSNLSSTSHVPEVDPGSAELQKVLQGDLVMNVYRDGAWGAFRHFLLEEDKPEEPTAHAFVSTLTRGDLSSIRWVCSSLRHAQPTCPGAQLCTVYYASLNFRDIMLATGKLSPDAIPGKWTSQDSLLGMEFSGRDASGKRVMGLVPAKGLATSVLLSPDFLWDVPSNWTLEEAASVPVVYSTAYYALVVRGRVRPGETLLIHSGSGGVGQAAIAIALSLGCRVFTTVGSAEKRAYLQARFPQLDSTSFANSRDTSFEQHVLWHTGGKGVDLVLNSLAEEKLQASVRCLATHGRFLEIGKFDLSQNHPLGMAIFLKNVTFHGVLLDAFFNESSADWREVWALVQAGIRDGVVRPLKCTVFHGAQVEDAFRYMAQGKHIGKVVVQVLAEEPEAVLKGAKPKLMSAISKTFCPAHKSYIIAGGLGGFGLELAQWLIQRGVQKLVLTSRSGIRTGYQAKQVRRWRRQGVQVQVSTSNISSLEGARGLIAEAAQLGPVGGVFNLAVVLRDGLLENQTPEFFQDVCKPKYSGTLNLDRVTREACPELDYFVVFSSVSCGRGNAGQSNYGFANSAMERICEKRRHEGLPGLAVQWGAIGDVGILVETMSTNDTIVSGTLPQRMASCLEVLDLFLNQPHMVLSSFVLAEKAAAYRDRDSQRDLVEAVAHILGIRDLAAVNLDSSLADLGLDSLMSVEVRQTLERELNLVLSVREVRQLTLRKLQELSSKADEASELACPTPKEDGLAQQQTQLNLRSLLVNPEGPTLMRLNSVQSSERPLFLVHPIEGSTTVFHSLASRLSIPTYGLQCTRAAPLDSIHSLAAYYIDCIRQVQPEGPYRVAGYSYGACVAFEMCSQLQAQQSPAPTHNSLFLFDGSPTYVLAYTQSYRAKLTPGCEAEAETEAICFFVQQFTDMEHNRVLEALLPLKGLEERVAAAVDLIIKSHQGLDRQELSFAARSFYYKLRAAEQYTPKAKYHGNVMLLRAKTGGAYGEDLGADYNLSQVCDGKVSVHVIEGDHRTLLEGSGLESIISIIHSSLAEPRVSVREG
72 kDa type IV collagenase, sequence (P08253 whole entry): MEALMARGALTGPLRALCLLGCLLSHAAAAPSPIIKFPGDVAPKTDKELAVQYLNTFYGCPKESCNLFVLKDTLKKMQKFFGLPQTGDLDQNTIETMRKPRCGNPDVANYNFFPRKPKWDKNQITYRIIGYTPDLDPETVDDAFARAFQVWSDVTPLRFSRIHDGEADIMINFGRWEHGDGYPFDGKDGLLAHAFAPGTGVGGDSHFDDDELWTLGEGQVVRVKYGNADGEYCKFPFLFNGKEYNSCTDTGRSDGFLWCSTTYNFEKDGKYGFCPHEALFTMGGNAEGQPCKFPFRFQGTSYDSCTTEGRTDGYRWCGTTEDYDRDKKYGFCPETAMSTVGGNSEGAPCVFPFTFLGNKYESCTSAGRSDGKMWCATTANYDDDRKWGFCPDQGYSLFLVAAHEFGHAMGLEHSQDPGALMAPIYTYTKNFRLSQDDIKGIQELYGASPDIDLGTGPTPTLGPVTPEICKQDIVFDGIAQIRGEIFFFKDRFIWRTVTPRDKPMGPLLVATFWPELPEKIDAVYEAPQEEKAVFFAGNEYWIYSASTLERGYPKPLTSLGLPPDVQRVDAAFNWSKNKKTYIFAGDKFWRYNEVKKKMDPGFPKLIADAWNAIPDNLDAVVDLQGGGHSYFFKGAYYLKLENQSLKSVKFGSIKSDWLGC
26S proteasome non-ATPase regulatory subunit 14, sequence (O00487 whole entry): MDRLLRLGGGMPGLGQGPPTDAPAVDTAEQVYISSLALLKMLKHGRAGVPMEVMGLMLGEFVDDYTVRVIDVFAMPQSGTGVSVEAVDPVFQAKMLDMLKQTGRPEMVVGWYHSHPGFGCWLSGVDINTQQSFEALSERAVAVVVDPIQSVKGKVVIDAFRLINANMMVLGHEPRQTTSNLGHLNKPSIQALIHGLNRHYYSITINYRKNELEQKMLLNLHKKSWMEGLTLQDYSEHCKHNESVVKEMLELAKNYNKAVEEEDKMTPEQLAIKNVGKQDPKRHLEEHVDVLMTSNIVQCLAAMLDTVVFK

Cc1ccc2nc(-c3ccc(NC(=O)c4cccnc4)cc3)oc2c1
AC50 (INS1): 4.63 µM (active)
AC50 [1]: 29.2 µM (active)

Cn1c(/C=N/c2nc3ccccc3[nH]2)nc2ccccc21
CC50 [2]: 37.4 µM (active)

N#Cc1ccc(C23CC4(C2)[C@H](CN(Cc2cccnc2)[C@@H]4c2ccccc2)C3c2ccccc2)cc1 (stereo partly specified)
CC50 [2]: > 40 µM (active)

Cc1cccc2sc(NNC(=O)c3ccc(S(=O)(=O)N4CCc5ccccc5C4)cc3)nc12
EC50 [3]: 2.4 µM (active)
EC50 (cells [4]): 12 µM (active)
EC50 (Streptokinase A): > 150 µM (not active)
EC50 [5]: 0.733 µM (active)
EC50 (cells [6]): > 350 µM (not active)
EC50 [7]: 2.62 µM (active)
EC50 (Streptococcus): 33.6 µM (active)
IC50 (Nonstructural protein 1): > 100 µM (active)
AC50 (INS1): 1.8 µM (active)
IC50 [8]: 13.8 µM (active)
IC50 [9]: 56.7 µM (active)

Brc1c(CSc2nc3ccccc3o2)nc2ncccn12
AC50 [10]: > 52 µM (inactive)

CCOC(=O)c1ccc2nc(NC(=O)c3ccco3)sc2c1
AC50 [10]: 26 µM (active)

O=C(Nc1ccc(N2CCOCC2)c(Cl)c1)c1ccccc1F
EC50 [11]: > 50 µM (active)

C(=N\Nc1nc2ccccc2[nH]1)/c1cccc2cccnc12
EC50 [12]: 5.09 µM (active)
EC50 (BJ [13]): 1.53 µM (active)
EC50 (cells [4]): 66.2 µM (active)
EC50 [14]: > 120 µM (not active)
EC50 (BJ [15]): 3.01 µM (active)
EC50 (cells [6]): 97.6 µM (active)
EC50 (BJ [16]): 3.36 µM (active)
EC50 [17]: 2.33 µM (active)
IC50 (Nonstructural protein 1): 13.4 µM (active)
AC50 (HEK293): 2.96 µM (active)
AC50 [10]: 26 µM (active)

CNC(=Nc1cc(Cl)ccc1Cl)SC1CC(=O)N(c2ccc(C(=O)OC)cc2)C1=O (stereo unspecified)
EC50 [3]: 10.3 µM (active)
CC50 [2]: > 40 µM (active)
EC50 (Streptococcus): 12.5 µM (active)

CC(=O)Nc1nc(-c2cccc3ccccc23)cs1
EC50 [5]: < 0.1 µM (active)
EC50 [7]: > 60 µM (not active)
EC50 (cells [18]): 0.264 µM (active)

Cc1ccc2c(C)nc(N=C(N)NS(=O)(=O)c3ccc([N+](=O)[O-])cc3)nc2c1
CC50 [19]: 45.4 µM (active)
EC50 [5]: < 0.1 µM (active)
EC50 [7]: > 60 µM (not active)
IC50 (Fatty acid synthase [20]): 10.9 µM (active)
IC50 (Fatty acid synthase [21]): 8.96 µM (active)
EC50 (cells [18]): 0.273 µM (active)

CC1(C)CC(=O)C2=C(C1)N(c1ccc(F)cc1)C(=O)CC2c1ccsc1 (stereo unspecified)
EC50 [11]: > 50 µM (active)

Clc1ccc(-c2c[n+](Cc3cccc(Cl)c3)c3n2CCC3)cc1
EC50 [5]: < 0.1 µM (active)
EC50 [7]: > 60 µM (not active)
AC50 [22]: 8.77 µM (active)
EC50 (cells [18]): 0.009 µM (active)

Cc1ccccc1Oc1ccc(Oc2ccccc2C)nn1
EC50 [11]: > 50 µM (active)

Cc1cccc(NC(=O)CNC(=O)CCc2nc3sc4c(c3c(=O)[nH]2)CCCC4)c1C
IC50 [23]: 2.66 µM (active)
IC50 [24]: 7.12 µM (active)
IC50 [25]: > 100 µM (inactive)
IC50 (Prothrombin): 43.9 µM (active)
AC50 (Caspase-6): 7.7 µM (active)

O=C(c1cc2ncc(Br)cn2n1)N1CCN(C(=O)c2ccco2)CC1
IC50 (Estrogen receptor): 17.9 µM (active)
IC50 (Estrogen receptor beta [26]): 2.73 µM (active)
IC50 (Estrogen receptor beta [27]): 0.349 µM (not active)
IC50 [23]: 16.5 µM (active)

Reference: ChEMBL document CHEMBL1201862, “PubChem BioAssay data set” (2004)
